The test system of experiment [1] is MIN6 cells. Kind of experiment: Secondary screening: oxidative stress (H2O2)-derived cell death suppression, MIN6 cells. The class given is cell-based, mouse. Details: key to oxidative stress-derived cell death inhibitory effect (class symbol): 一: 細胞死抑制効果無し; +: その中間程度の抑制効果を有する; ++: ダントロ レンの細胞死抑制効果と同程度. To be noted: H2O2 66 μM, 24 h; for oxidative stress-derived cell death inhibitory effect, compared with N-acetylcysteine (NAC): NAC 1000 μM.

The conditions of experiment [2]: other models; cited from earlier work.
The conditions of experiment [3]: Patent Document 1 (JP 2005-247728); cited from earlier work.
Experiment [4] has as its system MIN6 cells. Kind of experiment: Intracellular protein synthesis by metabolic labeling (35S-Met), MIN6 cells. The format is cell-based, mouse. The note with it: incubated for more than 24 hours.
Another experiment deals with heme-oxygenase 1 (HO-1). The experiment is described as follows: HO-1 expression by Northern blot, MIN6 cells. The format is cell-based, mouse.
For another experiment, the system named is CHOP. The experiment is described as follows: CHOP expression by Northern blot, MIN6 cells. The class given is cell-based, mouse.
The next experiment has as its system XBP1. The experiment is described as follows: XBP1 activation by RT-PCR, MIN6 cells. The format is cell-based, mouse.
Another experiment relates to GRP78. The experiment is described as follows: GRP78 expression by Northern blot, MIN6 cells. The format is cell-based, mouse.
The subject of experiment [5] is kidney (proximal) tubule cells. The experiment is described as follows: Third screening: mouse endoplasmic reticulum stress model (tunicamycin), kidney tubules, HE and TUNEL. To be noted: 10 mg/kg/day intraperitoneal daily for 4 days before tunicamycin 1 mg/kg. The format is in vivo.
Experiment [6] relates to rat Parkinson disease model. To be noted: cited from earlier work.
[7] abbreviates: pre-administration from 24 h before H2O2 and simultaneous administration.

Consider five compounds from patent publication WO2007139036A1, “Compound for controlling endoplasmic reticulum stress, and pharmaceutical composition comprising the compound as active ingredient” (Meiji Dairies Corp, priority 2006, dated 2007).

Each structure is given as a SMILES string.

`O=c1cc(-c2ccccc2)oc2ccccc12` [flavone]: in the experiment on MIN6 cells [1], the “oxidative stress-derived cell death inhibitory effect, compared with N-acetylcysteine (NAC)” value is on record as “効果はやや小さかった”. Further, the “oxidative stress-derived cell death inhibitory effect, compared with α-tocopherol and β-carotene” value in the experiment on MIN6 cells [1] (setting [7]) is “同程度の効果が認められた”.

For the compound `COc1ccc(-c2cc(=O)c3c(OC)c(OC)c(OC)c(OC)c3o2)cc1OC` [IN69, nobiletin], the “oxidative stress-derived cell death inhibitory effect (class symbol)” value in the experiment on MIN6 cells [1] (setting [7]) is given as “士”. Besides, the neuroprotective activity result in experiment [2] was “neuroprotective”.

With `CCCCCC=CCC=CCCCCCCCC(=O)OCC(COP(=O)(O)OCCN)OC(=O)CCCCCCCC=CCC=CCCCCC` (stereo not drawn) [ジリノレオイルホスファチジルエタノールァミン, dilinoleoylphosphatidylethanolamine], in [3], the “cell death induction suppressing activity” value is reported as “細胞死誘導抑制活性” and the “endoplasmic reticulum stress suppressing activity” value is “小胞体ストレス抑制活性”.

For `COc1ccc(-c2cc(=O)c3c(OC)c(OC)c(OC)cc3o2)cc1OC` [IN88, sinensetin], the “oxidative stress-derived cell death inhibitory effect, compared with N-acetylcysteine (NAC)” value in the experiment on MIN6 cells [1] is “効果はやや小さかった”. Moreover, in the experiment on MIN6 cells [1] (setting [7]), the “oxidative stress-derived cell death inhibitory effect, compared with α-tocopherol and β-carotene” value is reported as “同程度の効果が認められた”.

For `COc1ccc(-c2cc(=O)c3c(OC)c(OC)c(OC)c(OC)c3o2)cc1` [IN19, tangeretin], in the experiment with MIN6 cells [1], the “oxidative stress-derived cell death inhibitory effect, compared with N-acetylcysteine (NAC)” value is given as “効果はやや小さかった”. Further, the “oxidative stress-derived cell death inhibitory effect, compared with α-tocopherol and β-carotene” value with MIN6 cells [1] (setting [7]) is given as “同程度の効果が認められた”. Also, the “intracellular protein synthesis (decreased to)” value in the experiment with MIN6 cells [4] is reported as “about 60%”. Besides, the “expression of heme-oxygenase 1 (HO-1)” value in the experiment with heme-oxygenase 1 (HO-1) is reported as “also increased”. Moreover, in the experiment on CHOP, the “expression of CHOP” value was “also increased”. For the same compound, the “activation of XBP1” value in the experiment with XBP1 is “involves administration of IN19”. Moreover, the “expression of GRP78” value with GRP78 is listed as “at least not increased”. Moreover, the “tissue damage in renal tubules” value in experiment [5] (kidney on day 4 after tunicamycin) is recorded as “ほぼ完全に抑制された”. Besides, in experiment [5] (kidney on day 4 after tunicamycin (TUNEL)), the “cell death in renal tubules” value is given as “ほぼ完全に抑制された”. In addition, the neuroprotective activity entry in experiment [6] is reported as “neuroprotective”.
